Residues, ends and D or L forms follow the SMILES beside them.

In this assay the target is T1, αvβ3-integrin (Mus musculus, UniProt O54890+P43406).
T1 construct: purchased R&D Systems 7889-AV-050
T1 sequence (P43406 31-988 limits assumed): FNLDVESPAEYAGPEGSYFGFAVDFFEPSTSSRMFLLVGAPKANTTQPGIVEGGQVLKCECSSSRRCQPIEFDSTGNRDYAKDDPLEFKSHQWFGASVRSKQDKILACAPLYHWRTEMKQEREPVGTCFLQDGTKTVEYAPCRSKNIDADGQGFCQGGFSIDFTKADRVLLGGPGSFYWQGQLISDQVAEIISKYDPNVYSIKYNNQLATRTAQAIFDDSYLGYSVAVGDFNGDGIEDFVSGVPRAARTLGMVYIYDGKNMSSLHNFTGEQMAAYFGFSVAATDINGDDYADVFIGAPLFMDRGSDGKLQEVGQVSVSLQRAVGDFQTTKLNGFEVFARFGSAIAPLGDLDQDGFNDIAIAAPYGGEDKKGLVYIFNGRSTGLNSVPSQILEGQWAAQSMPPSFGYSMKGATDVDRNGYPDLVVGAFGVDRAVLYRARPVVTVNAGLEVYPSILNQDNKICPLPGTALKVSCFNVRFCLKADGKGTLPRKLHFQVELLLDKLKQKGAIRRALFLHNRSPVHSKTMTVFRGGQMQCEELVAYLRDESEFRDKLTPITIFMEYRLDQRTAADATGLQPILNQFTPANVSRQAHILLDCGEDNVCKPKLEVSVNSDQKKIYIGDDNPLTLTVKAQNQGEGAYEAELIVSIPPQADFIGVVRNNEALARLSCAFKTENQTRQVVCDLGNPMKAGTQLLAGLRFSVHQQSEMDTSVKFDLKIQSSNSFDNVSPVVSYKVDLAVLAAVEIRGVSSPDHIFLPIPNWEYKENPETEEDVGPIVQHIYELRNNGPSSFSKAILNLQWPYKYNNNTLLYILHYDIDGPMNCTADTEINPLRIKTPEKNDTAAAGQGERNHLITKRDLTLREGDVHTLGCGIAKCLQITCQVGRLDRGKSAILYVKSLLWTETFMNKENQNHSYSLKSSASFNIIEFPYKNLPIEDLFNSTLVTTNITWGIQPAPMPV
T1 sequence (O54890 26-717 limits assumed): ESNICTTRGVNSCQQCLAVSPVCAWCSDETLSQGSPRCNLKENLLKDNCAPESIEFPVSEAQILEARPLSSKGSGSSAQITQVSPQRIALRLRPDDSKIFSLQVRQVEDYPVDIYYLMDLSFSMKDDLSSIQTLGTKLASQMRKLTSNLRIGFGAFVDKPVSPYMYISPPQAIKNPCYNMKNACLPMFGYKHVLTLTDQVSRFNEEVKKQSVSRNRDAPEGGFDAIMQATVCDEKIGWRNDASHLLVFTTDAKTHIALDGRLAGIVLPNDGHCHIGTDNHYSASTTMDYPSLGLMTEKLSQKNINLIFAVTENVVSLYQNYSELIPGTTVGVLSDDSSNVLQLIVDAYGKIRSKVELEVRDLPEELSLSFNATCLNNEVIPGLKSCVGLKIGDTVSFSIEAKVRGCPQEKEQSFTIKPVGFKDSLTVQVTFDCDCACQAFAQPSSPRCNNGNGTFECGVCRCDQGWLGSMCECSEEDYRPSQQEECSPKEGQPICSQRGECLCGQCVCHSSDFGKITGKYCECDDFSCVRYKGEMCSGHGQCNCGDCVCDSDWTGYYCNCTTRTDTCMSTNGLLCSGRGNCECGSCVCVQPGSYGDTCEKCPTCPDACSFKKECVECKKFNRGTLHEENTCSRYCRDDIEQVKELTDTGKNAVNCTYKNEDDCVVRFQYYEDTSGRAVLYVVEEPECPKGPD
Kind of assay: Surface plasmon resonance binding to αvβ3-integrin. The note with it: Example 2, Biacore; integrin analyte 31.25 to 125 nM; read-out: KD, binding to αvβ3-integrin receptor. The text has this:
For Biacore experiments, recombinant murine (rm) CIRP was purchased from Cubasio Technology LLC (Cat #. CSB-EP613483He0), rmMFG-E8 was purchased from R&D Systems (Cat #2767-MF-050), and auß3-integrin was purchased from R&D Systems (Cat #7889-AV-050). For in vitro studies, recombinant human (rh)- and rmMFG-E8 and rmCIRP was produced by our lab as previously described (4). […] The known AA sequence of DD-2 (157 amino acids long) of murine MFG-E8 was split into ˜15 AA long sequences with a 5 AA long overlap. This portion of the peptide was designed to bind to eCIRP. The 15 AA sequences were then all tagged with three AA long, Arg-Gly-Asp (RGD), designed to bind to the integrin receptor. […] All peptides were screened in vitro for the ability to attenuate eCIRP-induced TNFα production. […]
To examine the direct interaction between rmCIRP and rmMFG-E8, surface plasmon resonance (SPR), OpenSPR (Nicoya), was performed between rmCIRP and rmMFG-E8. rmCIRP was immobilized on carboxyl sensor and rmMFG-E8 was injected as an analyte in concentrations of 15.7 nM to 250 nM. […] To evaluate binding, the analyte was injected into flow cell-1 and flow cell-2 and increasing concentrations and real-time interaction data were analyzed by TraceDrawer (Nicoya). […]
In general terms: SPR reads the build-up and loss of mass on a sensor chip optically.

The Kd is a measure of binding affinity in units of concentration. With `CC(C)C[C@H](NC(=O)[C@H](CC(N)=O)NC(=O)[C@H](Cc1c[nH]c2ccccc12)NC(=O)[C@@H](NC(=O)[C@H](CCCCN)NC(=O)[C@H](Cc1ccc(O)cc1)NC(=O)[C@H](CO)NC(=O)[C@H](CO)NC(=O)[C@H](CO)NC(=O)[C@H](CC(=O)O)NC(=O)CNC(=O)[C@@H](N)CCCNC(=N)N)[C@@H](C)O)C(=O)N[C@@H](CCCNC(=N)N)C(=O)N[C@@H](C)C(=O)N[C@@H](Cc1ccccc1)C(=O)NCC(=O)N[C@@H](Cc1c[nH]c2ccccc12)C(=O)N[C@@H](Cc1ccc(O)cc1)C(=O)O` [MOP3, RGDSSSYKTWNLRAFGWY] (H-RGDSSSYKTWNLRAFGWY-OH; N-terminus and C-terminus assumed), the Kd was found to be 776 nM.

The values are drawn from US20240197828A1, “Chimeric molecule to treat sepsis and other inflammatory conditions” (THE FEINSTEIN INSTITUTES FOR MEDICAL RESEARCH, priority 2022, published 2024).
